Data from patent US20060167046A1, “Histamine h3 receptor antagonists, preparation and therapeutic uses” (Eli Lilly and Company Patent Division, priority 2002, published 2006).

Target: T1, H3R membranes (H3R8-expressing HEK293 cell line) (Homo sapiens, UniProt Q9Y5N1)
T1 construct: expressed in transfected cells
Test: [35S]GTPγS binding assay, H3R membranes in the presence of agonist
Type: biochemical
Conditions: inhibition of [35S]GTPγS binding to H3R membranes in presence of agonist R(-)alpha methylhistamine; room temperature, pH 7.4
Protocol: Membranes isolated as described in (Preparation of Histamine Receptor Subtype Membranes) were used in a [^35S]GTPχS functional assay. Binding of [^35S]GTPχS to membranes indicates agonist activity. Compounds of the invention of Formula I were tested for their ability to inhibit binding in the presence of agonists. Alternately, the same transfected cell lines were used for a cAMP assay wherein H3R agonists inhibited forskolin-activated synthesis of cAMP. Compounds of Formula I were tested for their ability to permit forskolin-stimulated cAMP synthesis in the presence of agonist. cDNA for the human histamine 3 receptor was cloned and expressed as described in (A. Preparation H1R membranes), above. Transfected cells were selected using G418 ([…]), grown, and tested for histamine binding by the SPA described above. For total binding, cells were assayed in a SPA reaction described above containing 50 mM Tris-HCL (assay buffer), pH 7.6, 1 mg wheat germ agglutinin SPA beads (Amersham Pharmacia Biotech, #RPNQ0001), and 1 nM (^3H)-n-alpha-methylhistamine (NEN, NET1027) (total volume per well=200 μl). Thioperimide was added to determine non-specific binding. Several clones were selected as positive for binding, and a single clone (H3R8) was used to prepare membranes for binding studies described above. […] Plates were counted in Wallac Trilux 1450 Microbeta scintillation counter for 1 minute. […]

T1 sequence (Q9Y5N1 whole entry): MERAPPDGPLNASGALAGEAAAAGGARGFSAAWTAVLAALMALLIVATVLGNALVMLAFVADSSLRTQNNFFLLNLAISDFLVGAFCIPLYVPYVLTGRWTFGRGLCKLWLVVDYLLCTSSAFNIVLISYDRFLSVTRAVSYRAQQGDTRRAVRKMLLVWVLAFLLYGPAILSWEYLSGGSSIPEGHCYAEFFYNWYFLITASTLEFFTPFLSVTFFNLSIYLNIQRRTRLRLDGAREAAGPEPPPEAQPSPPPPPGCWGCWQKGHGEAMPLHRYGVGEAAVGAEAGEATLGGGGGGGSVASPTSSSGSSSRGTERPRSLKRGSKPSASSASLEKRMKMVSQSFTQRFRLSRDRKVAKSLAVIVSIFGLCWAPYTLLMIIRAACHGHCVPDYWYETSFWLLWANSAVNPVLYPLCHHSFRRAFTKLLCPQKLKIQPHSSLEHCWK

Ki | SMILES
0.5 nM | CN1CCC[C@H]1CN1CCc2cc(OCCCN3CCCCC3)ccc21 [Example 60, (S)-1-(1-Methyl-pyrrolidin-2-ylmethyl)-5-(3-piperidin-1-yl-propoxy)-2,3-dihydro-1H-indole]
12.6 nM | O=C(c1cccs1)N1CCCc2ccc(OCCCN3CCCCC3)cc21 [Example 6, [7-(3-Piperidin-1-yl-propoxy)-3,4-dihydro-2H-quinolin-1-yl]-thiophen-2-yl-methanone]
